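Grown in 96-well plates, cells were treated for 48 hours with each compound at five concentrations. Insufficient inhibition: endpoint recorded as highest concentration tested. GI50 is the concentration that inhibits growth by half. TGI is the concentration that stops growth completely.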
How the values were obtained:
Assay in all cases: NCI anticancer screen, dose series, 48 h
SN12C renal = system: SN12C renal
CAKI-1 renal = system: CAKI-1 renal
NCI-H23 lung = system: NCI-H23 lung
HT29 colon = system: HT29 colon
COLO 205 colon = system: COLO 205 colon
SNB-19 CNS = system: SNB-19 CNS
A549 NSCLC = system: A549 NSCLC
HL-60(TB) leukemia = system: HL-60(TB) leukemia
RPMI-8226 leukemia = system: RPMI-8226 leukemia
OVCAR-5 ovarian = system: OVCAR-5 ovarian

Fc1cc(Nc2ccc3c(OCCCN4CCOCC4)cccc3n2)ccc1Cl
GI50 (SN12C renal): 4.36 µM | TGI (SN12C renal): 19.3 µM | GI50 (CAKI-1 renal): 1.89 µM | TGI (CAKI-1 renal): 5.1 µM | GI50 (NCI-H23 lung): 2.21 µM | TGI (NCI-H23 lung): 5.38 µM | GI50 (HT29 colon): 1530 nM | TGI (HT29 colon): 3 µM | GI50 (COLO 205 colon): 1820 nM | TGI (COLO 205 colon): 3.43 µM | GI50 (SNB-19 CNS): 2.21 µM | TGI (SNB-19 CNS): 5.29 µM | GI50 (A549 NSCLC): 2.96 µM | TGI (A549 NSCLC): 8.47 µM | GI50 (HL-60(TB) leukemia): 2.68 µM | TGI (HL-60(TB) leukemia): 7.77 µM | GI50 (RPMI-8226 leukemia): 2.64 µM | TGI (RPMI-8226 leukemia): 6.97 µM | GI50 (OVCAR-5 ovarian): 2.13 µM | TGI (OVCAR-5 ovarian): 4.88 µM

Clc1ccc(CCN2CCOCC2)c(Cl)c1
TGI (SN12C renal): > 100 µM | TGI (CAKI-1 renal): > 100 µM | TGI (NCI-H23 lung): > 100 µM | TGI (HT29 colon): > 100 µM | TGI (COLO 205 colon): > 100 µM | TGI (SNB-19 CNS): > 100 µM | TGI (A549 NSCLC): > 100 µM | TGI (HL-60(TB) leukemia): > 100 µM | TGI (RPMI-8226 leukemia): > 100 µM | TGI (OVCAR-5 ovarian): > 100 µM

OCC1CC2CC1C1(C2)OCCO1 (stereo not given)
TGI (SN12C renal): > 100 µM | TGI (CAKI-1 renal): > 100 µM | TGI (NCI-H23 lung): > 100 µM | TGI (HT29 colon): > 100 µM | TGI (COLO 205 colon): > 100 µM | TGI (SNB-19 CNS): > 100 µM | TGI (A549 NSCLC): > 100 µM | TGI (HL-60(TB) leukemia): > 100 µM | TGI (RPMI-8226 leukemia): > 100 µM | TGI (OVCAR-5 ovarian): > 100 µM

N#CC(/C(=N\NC(N)=S)C(=O)NC1C2CC3CC(C2)CC1C3)c1ccc(Cl)cc1 (stereo not given)
TGI (SN12C renal): > 100 µM | TGI (CAKI-1 renal): > 100 µM | TGI (NCI-H23 lung): > 100 µM | TGI (HT29 colon): > 100 µM | TGI (COLO 205 colon): > 100 µM | TGI (SNB-19 CNS): > 100 µM | TGI (A549 NSCLC): > 100 µM | TGI (HL-60(TB) leukemia): > 100 µM | TGI (RPMI-8226 leukemia): > 100 µM | TGI (OVCAR-5 ovarian): > 100 µM

Cc1nc(Nc2ccc([N+](=O)[O-])cc2)sc1C(=O)/C=C/c1ccc(N(C)C)cc1
TGI (SN12C renal): > 100 µM | TGI (CAKI-1 renal): > 100 µM | TGI (NCI-H23 lung): > 100 µM | TGI (HT29 colon): > 100 µM | TGI (COLO 205 colon): > 100 µM | TGI (SNB-19 CNS): > 100 µM | TGI (A549 NSCLC): > 100 µM | TGI (HL-60(TB) leukemia): > 100 µM | TGI (RPMI-8226 leukemia): > 100 µM | TGI (OVCAR-5 ovarian): > 100 µM

O=C(O)CNS(=O)(=O)c1ccc(NC(=O)c2cccc([N+](=O)[O-])c2)cc1
TGI (SN12C renal): > 100 µM | TGI (CAKI-1 renal): > 100 µM | TGI (NCI-H23 lung): > 100 µM | TGI (HT29 colon): > 100 µM | TGI (COLO 205 colon): > 100 µM | TGI (SNB-19 CNS): > 100 µM | TGI (A549 NSCLC): > 100 µM | TGI (HL-60(TB) leukemia): > 100 µM | TGI (RPMI-8226 leukemia): > 100 µM | TGI (OVCAR-5 ovarian): > 100 µM

CC(C)=CCC[C@](C)(O)[C@H]1CC[C@]2(C)[C@@H]1CC[C@@H]1[C@@]3(C)CC[C@H](OC(=O)CCC(=O)O)C(C)(C)[C@@H]3CC[C@]12C
GI50 (SN12C renal): 25.5 µM | TGI (SN12C renal): 78.1 µM | GI50 (CAKI-1 renal): 24.7 µM | TGI (CAKI-1 renal): > 100 µM | GI50 (NCI-H23 lung): 30.8 µM | TGI (NCI-H23 lung): > 100 µM | GI50 (HT29 colon): 29200 nM | TGI (HT29 colon): > 100 µM | GI50 (COLO 205 colon): 27400 nM | TGI (COLO 205 colon): 95.3 µM | GI50 (SNB-19 CNS): 25.1 µM | TGI (SNB-19 CNS): > 100 µM | GI50 (A549 NSCLC): 32.3 µM | TGI (A549 NSCLC): > 100 µM | GI50 (HL-60(TB) leukemia): 22.2 µM | TGI (HL-60(TB) leukemia): 53.1 µM | GI50 (RPMI-8226 leukemia): 7.65 µM | TGI (RPMI-8226 leukemia): 52.9 µM | GI50 (OVCAR-5 ovarian): 28.8 µM | TGI (OVCAR-5 ovarian): 96.3 µM

C1CCN2CC34CC(CC5CCCN(C6CCCC3N6)C54)C2C1 (stereo not given)
TGI (SN12C renal): > 100 µM | TGI (CAKI-1 renal): > 100 µM | TGI (NCI-H23 lung): > 100 µM | TGI (HT29 colon): > 100 µM | TGI (COLO 205 colon): > 100 µM | TGI (SNB-19 CNS): > 100 µM | TGI (A549 NSCLC): > 100 µM | TGI (HL-60(TB) leukemia): > 100 µM | TGI (RPMI-8226 leukemia): > 100 µM | TGI (OVCAR-5 ovarian): > 100 µM

COCCOCCOCCOCCOc1ccc2c(c1)C(=O)c1nc3ncccc3c(=O)n1-2
GI50 (SN12C renal): 1.38 µM | TGI (SN12C renal): 2.91 µM | GI50 (CAKI-1 renal): 0.663 µM | TGI (CAKI-1 renal): 2.02 µM | GI50 (NCI-H23 lung): 0.279 µM | TGI (NCI-H23 lung): 1.18 µM | GI50 (HT29 colon): 1470 nM | TGI (HT29 colon): 3.7 µM | GI50 (COLO 205 colon): 1880 nM | TGI (COLO 205 colon): 3.35 µM | GI50 (SNB-19 CNS): 1.28 µM | TGI (SNB-19 CNS): 2.64 µM | GI50 (A549 NSCLC): 0.465 µM | TGI (A549 NSCLC): 2.41 µM | GI50 (HL-60(TB) leukemia): 1.8 µM | TGI (HL-60(TB) leukemia): 5.05 µM | GI50 (RPMI-8226 leukemia): 1.86 µM | TGI (RPMI-8226 leukemia): 4.94 µM | GI50 (OVCAR-5 ovarian): 1.78 µM | TGI (OVCAR-5 ovarian): 3.16 µM

COc1ccc(-c2nc(N)nc(-c3cc(C)ccc3O)c2Cl)cc1
TGI (SN12C renal): > 100 µM | TGI (CAKI-1 renal): > 100 µM | TGI (NCI-H23 lung): > 100 µM | TGI (HT29 colon): > 100 µM | TGI (COLO 205 colon): > 100 µM | TGI (SNB-19 CNS): > 100 µM | TGI (A549 NSCLC): > 100 µM | TGI (HL-60(TB) leukemia): > 100 µM | TGI (RPMI-8226 leukemia): > 100 µM | TGI (OVCAR-5 ovarian): > 100 µM

COc1cc(C=NCC(=O)CSC(c2ccccc2)c2ccccc2)cc(OC)c1OC
GI50 (SN12C renal): 25.8 µM | TGI (SN12C renal): > 100 µM | GI50 (CAKI-1 renal): 25.2 µM | TGI (CAKI-1 renal): > 100 µM | GI50 (NCI-H23 lung): 26 µM | TGI (NCI-H23 lung): > 100 µM | GI50 (HT29 colon): 8000 nM | TGI (HT29 colon): 83.6 µM | GI50 (COLO 205 colon): 4960 nM | TGI (COLO 205 colon): 33 µM | GI50 (SNB-19 CNS): 30 µM | TGI (SNB-19 CNS): > 100 µM | GI50 (A549 NSCLC): 7.7 µM | TGI (A549 NSCLC): > 100 µM | GI50 (HL-60(TB) leukemia): 8.01 µM | TGI (HL-60(TB) leukemia): 26.8 µM | GI50 (RPMI-8226 leukemia): 5.18 µM | TGI (RPMI-8226 leukemia): 39.9 µM | GI50 (OVCAR-5 ovarian): 63.5 µM | TGI (OVCAR-5 ovarian): > 100 µM

CC(C)(C)c1ccc(C(O)(c2ccc(C(C)(C)C)cc2)c2ccc(C(C)(C)C)cc2)cc1
TGI (SN12C renal): > 100 µM | TGI (CAKI-1 renal): > 100 µM | TGI (NCI-H23 lung): > 100 µM | TGI (HT29 colon): > 100 µM | TGI (COLO 205 colon): > 100 µM | TGI (SNB-19 CNS): > 100 µM | TGI (A549 NSCLC): > 100 µM | TGI (HL-60(TB) leukemia): > 100 µM | TGI (RPMI-8226 leukemia): > 100 µM | TGI (OVCAR-5 ovarian): > 100 µM

Cc1cc(C#Cc2ccccc2)ccc1-n1c(/C=C/c2ccc(O)cc2)nc2ccccc2c1=O
GI50 (SN12C renal): 3.77 µM | TGI (SN12C renal): 38.3 µM | GI50 (CAKI-1 renal): 3.3 µM | TGI (CAKI-1 renal): 36.5 µM | GI50 (NCI-H23 lung): 3.62 µM | TGI (NCI-H23 lung): > 100 µM | GI50 (HT29 colon): 3330 nM | TGI (HT29 colon): 16.6 µM | GI50 (COLO 205 colon): 1990 nM | TGI (COLO 205 colon): 4.75 µM | GI50 (SNB-19 CNS): 6.91 µM | TGI (SNB-19 CNS): > 100 µM | GI50 (A549 NSCLC): 3.14 µM | TGI (A549 NSCLC): > 100 µM | GI50 (HL-60(TB) leukemia): 1.66 µM | TGI (HL-60(TB) leukemia): 4.69 µM | GI50 (RPMI-8226 leukemia): 2.33 µM | TGI (RPMI-8226 leukemia): > 100 µM | GI50 (OVCAR-5 ovarian): 4.59 µM | TGI (OVCAR-5 ovarian): 94.7 µM

O=C(Nc1ccc(-c2nc3ccc(NC(=O)c4ccc(Cl)cc4)cc3[nH]2)cc1)c1ccc(Cl)cc1
GI50 (SN12C renal): 12 µM | TGI (SN12C renal): 24.3 µM | GI50 (CAKI-1 renal): 7.12 µM | TGI (CAKI-1 renal): 23.7 µM | GI50 (NCI-H23 lung): 4.63 µM | TGI (NCI-H23 lung): 16.4 µM | GI50 (HT29 colon): 2110 nM | TGI (HT29 colon): 6.89 µM | GI50 (COLO 205 colon): 2470 nM | TGI (COLO 205 colon): 6.54 µM | GI50 (SNB-19 CNS): 13.8 µM | TGI (SNB-19 CNS): 28.4 µM | GI50 (A549 NSCLC): 2.05 µM | TGI (A549 NSCLC): 5.08 µM | GI50 (HL-60(TB) leukemia): 4.12 µM | TGI (HL-60(TB) leukemia): 16.2 µM | GI50 (RPMI-8226 leukemia): 5.77 µM | TGI (RPMI-8226 leukemia): 23 µM | GI50 (OVCAR-5 ovarian): 5.45 µM | TGI (OVCAR-5 ovarian): 19.2 µM

CN(C)/C(=N/C(=O)Nc1ccccc1)SCc1ccccc1
TGI (SN12C renal): > 100 µM | TGI (CAKI-1 renal): > 100 µM | TGI (NCI-H23 lung): > 100 µM | TGI (HT29 colon): > 100 µM | TGI (COLO 205 colon): > 100 µM | TGI (SNB-19 CNS): > 100 µM | TGI (A549 NSCLC): > 100 µM | TGI (HL-60(TB) leukemia): > 100 µM | TGI (RPMI-8226 leukemia): > 100 µM | TGI (OVCAR-5 ovarian): > 100 µM

From PubChem BioAssay (NCI)
